Reference: patent US20110293518A1 (GE HEALTHCARE LIMITED, priority 2005, published 2011)

How the values were obtained:
[1] = Frozen section autoradiography / in vitro binding on tissue slices; set-up: species or system human; conditions: for tracer binding in inflammatory tissues in vitro: about 20 micrometer slices, about 2 nM tracer, about 40 minutes, room temperature
Description: There are various hypothesis as to what biological mechanisms are behind the high uptake of DDE in inflammatory joint tissues of humans.
The in vitro binding experiments were performed on thin slices of tissue of about 20 micrometers in rats and in humans. The thin slices of tissues were adhered to gelatinized slide glasses. […] After incubation the slide glasses were washed about 3 times in a buffer, dried, and exposed on phosphor imaging plates for a minimum of 60 minutes.

[2] = PET with DDE (and GLD) in patients with whiplash associated disorder (WAD); type: in vivo, human; conditions: for increase of uptake at cervical vertebrae 2 and 3 (insertion in m. semispinalis capitis): one case
Excerpt: Clinically, those patients with a higher uptake of DDE in the affected joint areas seem to report high pain ratings while being in the scanner.
In a similar experiment, sixteen patients were investigated using a high resolution PET scanner.
In the […] experiments, local uptake was present in all cases in the parotis and submandibularis glandulae. Differences between patients were found in areas related to the insertion of muscles to the occipital bone, vertebrae and clavicula.

[3] = Pilot PET experiments in patients with bacterial abscesses; type: in vivo, human; conditions: small pilot series in patients
[4] = PET with DDE in inflamed joints (rheumatoid arthritis patients); type: in vivo, human
[5] = PET-CT with DDE in healthy subjects; type: in vivo, human; conditions: eight healthy subjects
Excerpt: In a third experiment eight healthy subjects were investigated using a PET-CT (Computerized Tomography) scanner. PET/CT combines the strengths of two well-established imaging modalities, PET for function and CT for anatomy, into a single imaging device. The subjects were free from pain in the neck and shoulder regions during at least two months and they had not been involved in accidents which could have caused a neck injury.

**Q.** What does the source list for [11CH3]Oc1ccc(-n2nnnc2C(F)(F)F)cc1CN[C@H]1CCCN[C@H]1c1ccccc1 [GLD, [^11C]-GR205171]?
**A.** tracer binding in inflammatory tissues in vitro [1]: very high; increase of uptake at cervical vertebrae 2 and 3 (insertion in m. semispinalis capitis) [2]: approximately 70%; increase of tracer uptake in bacterial abscesses [3]: no visible increase

**Q.** What does the source list for C#CCN([11CH3])[C@@H](C)Cc1ccccc1 [DDE, D-[methyl-^11C]-deprenyl]?
**A.** tracer binding in inflammatory tissues in vitro [1]: very high; binding in frozen section autoradiography ([1]; various tissues): much higher binding in inflamed joints than any other tissues; uptake and retention on swollen synovial tissue ([4]; inflamed synovial joints): very pronounced uptake and retention; uptake in affected joint after intra-articular injections of glucocorticoids ([4]; observed 6-14 days after treatment): significant diminishing of the uptake; blocking of uptake in inflamed joint by Eldepryl (MAO-B blocking) ([4]; one patient re-examined after administration of Eldepryl): no blocking effect; activity in inflamed tissue as seen in PET images ([4]; patients with rheumatoid arthritis): very high activity; reduction of activity in inflamed tissue ([4]; the day after intra-articular administration of glucocorticoid): 50%; increase in uptake compared with the cerebellum, insertion of m. rectus capitis posterior major ([2]; bilaterally in 3 patients, normalized to inferior part of the cerebellum): 57%-127%; binding of tracer to soft tissue in the neck vertebra ([2]; four of eight WAD patients, PET): appeared to bind to soft tissue in the neck vertebra; difference in uptake between right and left side ([2]; fourth patient, no clear increase): 40%; increase of uptake at cervical vertebrae 2 and 3 (insertion in m. semispinalis capitis) [2]: approximately 70%; patients with increased uptake in the neck and shoulder areas ([2]; sixteen patients, high resolution PET scanner): about 50%; increase of tracer uptake in bacterial abscesses [3]: no visible increase; increased uptake in scanned neck and shoulder regions [5]: None of the subjects revealed an increased uptake
